Entries after “also recorded” stand apart in the source; their conditions may differ.
What was measured:
[1] = drinking solution (water/alcohol) in dark glass vials; cited from earlier work
healthy participants = settings: in vivo; cited from earlier work
[2] = tested on: dopaminergic D1-3 receptors; settings: cited from earlier work
[3] = tested on: patients with anxiety disorder without somatic illness; assay: Same phase II study: acute alterations of mind (5D-ASC) and mystical-type effects (MEQ30); type: in vivo, human
Experimental: Each of the four LSD/Placebo sessions lasted 12 hours from 8 AM to 8 PM. Sessions took place in a quiet room at the Ambulatory Study Center of the University Hospital Basel (Basel center) or in the private practice office of Dr. P. Gasser (Solothurn center). At the beginning of the session, current mood and mental state were discussed and a urine drug screen was taken and any AEs since the last visit were recorded. Any open questions or concerns were addressed by the investigator. The participants were advised to lie in a bed or sit comfortably on a chair. Other than going to the bathroom, the participants remained in the treatment room for the entire 12-hour experimental session and were supervised constantly up to 8-12 hours after LSD/placebo administration depending on the participant's response and as needed. The subjective effects of LSD at the dose used in this study were expected to last 8-12 hours (Gasser et al., 2014; Holze et al., 2021; Schmid et al., 2015). […] During the LSD/placebo effect, the participants were instructed to focus their awareness inward. Subjects were encouraged to wear eye shades during the first hours (or the light was dimmed) as well as to listen to music and discussions/talking much with the investigator were discouraged. Subjects were allowed to remain mostly undisturbed with brief physical contacts every two hours when heart rate and blood pressure were measured. At the end of the sessions, 10-12 hours after LSD/placebo administration, the acute subjective peak effects were retrospectively rated by the participants using the 5D-ASC, SCQ, AMRS, and VASs and the experience was discussed. Ten-twelve hours after LSD/placebo administration the participants were allowed to return to their home with company and supervision provided by the partner, a relative, or a friend. […]
The 5 dimensions of altered states of consciousness (5D-ASC) scale is a visual analog scale consisting of 94 items (Dittrich, 1998; Studerus et al., 2010). […] Each item of the scale was scored on a 0-100 mm VAS. […]

5-HT1 receptors = settings: cited from earlier work
[4] = 200 μg oral, cited from earlier work
[5] = tested on: patients with life-threatening illness and related anxiety; settings: cited from earlier work
5-HT2A receptor = 5-HT2A receptor (Homo sapiens, UniProt P28223); settings: cited from earlier work
Sequence of 5-HT2A receptor (P28223 whole entry): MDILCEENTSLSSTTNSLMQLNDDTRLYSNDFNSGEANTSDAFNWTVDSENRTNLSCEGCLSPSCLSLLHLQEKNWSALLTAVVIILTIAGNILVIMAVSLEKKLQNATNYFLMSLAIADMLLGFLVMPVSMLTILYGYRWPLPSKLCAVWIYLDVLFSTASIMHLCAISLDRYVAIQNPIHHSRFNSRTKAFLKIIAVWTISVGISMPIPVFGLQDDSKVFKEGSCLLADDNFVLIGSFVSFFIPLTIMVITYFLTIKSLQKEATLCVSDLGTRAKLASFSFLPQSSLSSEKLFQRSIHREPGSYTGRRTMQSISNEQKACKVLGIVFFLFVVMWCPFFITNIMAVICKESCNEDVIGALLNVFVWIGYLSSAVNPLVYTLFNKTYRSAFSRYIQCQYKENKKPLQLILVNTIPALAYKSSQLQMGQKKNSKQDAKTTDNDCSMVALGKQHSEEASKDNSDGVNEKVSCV

[6] = within-subjects, after two LSD sessions

Structure (SMILES): CCN(CC)C(=O)[C@@H]1C=C2c3cccc4[nH]cc(c34)C[C@H]2N(C)C1 [LSD, lysergic acid diethylamide]
- content-uniformity and stability of the formulation [1]: stability of the formulation throughout the entire study period was documented
- emotional empathy and prosociality (healthy participants): enhancing
- recognition of fearful and sad faces (healthy participants): decreasing
- activity at dopaminergic D1-3 receptors [2]: stimulates
- ratings of mystical-type experiences on the MEQ30 questionnaire ([3]; 200 μg vs placebo, similar at first and second session): significantly and strongly increased
- alterations in all scales of the 5D-ASC questionnaire ([3]; 200 μg, all p<0.001 vs. placebo, comparable at session 1 and 2): significant and marked alterations
- acute effects (5D-ASC) compared with healthy subjects given the same dose ([3]; 200 μg, comparison with Holze et al., 2021): generally greater
- activity at 5-HT1 receptors (5-HT1 receptors): stimulates
- time to maximal concentrations of LSD ([4]; 16 healthy subjects): 1.5 h
- half-life ([4]; first-order kinetics up to 12 hours): 3.6 h
- STAI anxiety compared with baseline ([5]; 2 months after the two LSD sessions, 200 μg per os): significant decrease
- mild affect lability, share of LSD sessions ([5]; in vivo): 14%
- mild gait disturbance, share of LSD sessions ([5]; in vivo): 32%
- mild-to-moderate emotional distress, share of LSD sessions ([5]; in vivo): 36%
- moderate anxiety, share of LSD sessions ([5]; in vivo): 23%
- moderately feeling cold, share of LSD sessions ([5]; in vivo): 45%
- number of migraine attacks ([5]; two migraine patients): markedly reduced
- STAI state anxiety score after LSD (mean±SD) [5, 6]: 41.5±9.7
- STAI trait anxiety score after LSD (mean±SD) [5, 6]: 45.3±10.3
- STAI state anxiety score before LSD (mean±SD) ([5]; within-subjects, baseline): 53.1±13.5
- STAI trait anxiety score before LSD (mean±SD) ([5]; within-subjects, baseline): 53.3±11.3
- decrease in STAI trait anxiety score (mean±SD) ([5]; within-subjects): 8.0±7.7 points
- reduction in STAI state anxiety score (mean±SD) ([5]; within-subjects): 11.6±9.5 points
- activity at the 5-HT2A receptor (5-HT2A receptor): partial 5-HT2A receptor agonist; also recorded: agonists
